# Results: ChEMBL document CHEMBL1201862, “PubChem BioAssay data set” (2004)
#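 Exposure lasted 48 hours, with cells grown in 96-well plates and compounds tested at five concentrations. GI50: concentration for 50% inhibition of growth.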 Activity calls are given as the source filed them. No stated cut-off is given here; in the data, active = GI50 up to about 1.1 µM and inactive = higher.
# Tests used:
# Experiment in all cases: NCI-60 cell line screen, 48 h
# OVCAR-3 = system: OVCAR-3
# TK-10 = system: TK-10
# IGROV-1 = system: IGROV-1
# RPMI-8226 = system: RPMI-8226
# SNB-19 = system: SNB-19
# CCRF-CEM = system: CCRF-CEM
# PC-3 = system: PC-3
# NCI/ADR-RES = system: NCI/ADR-RES
# HCC 2998 = system: HCC 2998
# SN12C = system: SN12C
# MOLT-4 = system: MOLT-4
# NCI-H460 = system: NCI-H460
# M14 = system: M14
# LOX IMVI = system: LOX IMVI
# Hs-578T = system: Hs-578T
# NCI-H23 = system: NCI-H23
# CAKI-1 = system: CAKI-1
# DU-145 = system: DU-145
# UO-31 = system: UO-31
# SK-MEL-5 = system: SK-MEL-5
SMILES,GI50 (OVCAR-3),GI50 (TK-10),GI50 (IGROV-1),GI50 (RPMI-8226),GI50 (SNB-19),GI50 (CCRF-CEM),GI50 (PC-3),GI50 (NCI/ADR-RES),GI50 (HCC 2998),GI50 (SN12C),GI50 (MOLT-4),GI50 (NCI-H460),GI50 (M14),GI50 (LOX IMVI),GI50 (Hs-578T),GI50 (NCI-H23),GI50 (CAKI-1),GI50 (DU-145),GI50 (UO-31),GI50 (SK-MEL-5)
CCOP(=O)(OCC)C(NC(=O)C(C(F)(F)F)C(F)(F)F)c1ccccc1 (stereo not given),> 100 µM (inactive),> 100 µM (inactive),> 100 µM (inactive),21.7 µM (inactive),> 100 µM (inactive),36.6 µM (inactive),> 100 µM (inactive),> 100 µM (inactive),> 100 µM (inactive),> 100 µM (inactive),67.3 µM (inactive),> 100 µM (inactive),> 100 µM (inactive),> 100 µM (inactive),> 100 µM (inactive),> 100 µM (inactive),> 100 µM (inactive),> 100 µM (inactive),49.9 µM (inactive),> 100 µM (inactive)
O=P1(NCCCl)OCCCN1CCCl (stereo not given) [IFOSFAMIDE],365 µM (inactive),> 471 µM (inactive),433 µM (inactive),332 µM (inactive),361 µM (inactive),207 µM (inactive),> 500 µM (inactive),410 µM (inactive),346 µM (inactive),388 µM (inactive),262 µM (inactive),394 µM (inactive),> 467 µM (inactive),311 µM (inactive),> 500 µM (inactive),417 µM (inactive),287 µM (inactive),> 500 µM (inactive),386 µM (inactive),398 µM (inactive)
COc1c2ccccc2c(OC)c2nc(C)ccc12,> 100 µM (inactive),> 100 µM (inactive),> 100 µM (inactive),81.8 µM (inactive),> 100 µM (inactive),23.7 µM (inactive),> 91 µM (inactive),> 100 µM (inactive),> 100 µM (inactive),> 100 µM (inactive),40.6 µM (inactive),39.7 µM (inactive),> 100 µM (inactive),23.7 µM (inactive),> 100 µM (inactive),> 100 µM (inactive),> 94 µM (inactive),> 100 µM (inactive),> 100 µM (inactive),71.4 µM (inactive)
O=c1c2ccccc2oc2nc3n(c(=O)c12)CCCS3,> 100 µM (inactive),> 100 µM (inactive),> 100 µM (inactive),> 100 µM (inactive),> 100 µM (inactive),> 100 µM (inactive),> 100 µM (inactive),> 100 µM (inactive),> 100 µM (inactive),> 100 µM (inactive),> 100 µM (inactive),> 100 µM (inactive),> 100 µM (inactive),> 100 µM (inactive),> 100 µM (inactive),> 100 µM (inactive),> 100 µM (inactive),> 100 µM (inactive),15.7 µM (inactive),> 100 µM (inactive)
COC(=O)[C@H](Cc1ccccc1)NC(=O)N1CCN(C(=O)N[C@@H](Cc2ccccc2)C(=O)OC)CCN(C(=O)N[C@@H](Cc2ccccc2)C(=O)OC)CC1,> 100 µM (inactive),> 100 µM (inactive),> 100 µM (inactive),> 100 µM (inactive),> 100 µM (inactive),> 100 µM (inactive),> 100 µM (inactive),> 100 µM (inactive),> 100 µM (inactive),> 100 µM (inactive),> 100 µM (inactive),> 100 µM (inactive),> 100 µM (inactive),> 100 µM (inactive),> 100 µM (inactive),> 100 µM (inactive),> 100 µM (inactive),> 100 µM (inactive),> 100 µM (inactive),> 100 µM (inactive)
CN(C)c1ccc(/C=N\NC(=O)c2ccccc2Nc2ccccc2C(=O)N/N=C/c2ccc(N(C)C)cc2)cc1,> 100 µM (inactive),> 100 µM (inactive),> 100 µM (inactive),> 100 µM (inactive),> 100 µM (inactive),> 100 µM (inactive),> 100 µM (inactive),> 100 µM (inactive),> 100 µM (inactive),> 100 µM (inactive),> 100 µM (inactive),> 100 µM (inactive),31.7 µM (inactive),92.9 µM (inactive),> 100 µM (inactive),> 100 µM (inactive),> 100 µM (inactive),> 100 µM (inactive),> 100 µM (inactive),57 µM (inactive)
CCN(CC)CCCNc1ccc2ncn3c4ccc(O)cc4c(=O)c1c23,8.69 µM (inactive),1.69 µM (inactive),1.39 µM (inactive),2.06 µM (inactive),2.21 µM (inactive),0.166 µM (active),1.41 µM (inactive),> 10 µM (inactive),2.15 µM (inactive),0.637 µM (active),0.0411 µM (active),0.105 µM (active),3.3 µM (inactive),0.392 µM (active),0.39 µM (active),2.19 µM (inactive),0.365 µM (active),1.42 µM (inactive),2.16 µM (inactive),3.41 µM (inactive)
